Data as given in patent US20140275105A1, “CRYSTAL OF ANDROGEN RECEPTOR AN[…]” (Astellas Pharma Inc., priority 2011, published 2014).
Like-named read-outs stand apart in the source and are kept apart here.

Legend:
Assay type in all cases: physicochemical
[1] = Physical solid stability (powder X-ray diffraction and DSC); conditions: 70° C., plugged up, uncontrolled humidity, two weeks
Method: With respect to solid state stability of the crystals of the present invention, physical/chemical stability under temperature and humidity conditions, and chemical stability in a light irradiation state were evaluated. The physical stability was evaluated by the powder X-ray diffraction and the differential scanning calorimetry analysis (DSC) (under the above-described measurement conditions). The chemical stability was evaluated by HPLC (related substance test and optical isomer separating test), and represented by the ratio (%) of generated impurities.
(Solid State Stability, Temperature)
In an Incubator IC-450A (manufactured by AS ONE Corporation) set as 70° C., a sample was plugged up and stored under the uncontrolled humidity environment for two weeks.
(Solid State Stability, Temperature/Humidity)

[2] = Solubility in JP1, JP2, JP2+TC, FaSSIF, FeSSIF (shaking 10 minutes at room temperature, HPLC); conditions: 10 minutes shaking
Method: 0.5 mg to 1 mg of a sample was weighed in 10 mL of a centrifuge tube, and respective solutions (see below) were added thereto such that the amount thereof became approximately 150 μg/mL. In order to disperse the sample uniformly, the solution was sonicated in a water bath for a short period of time, followed by shaking at room temperature for 10 minutes using a shaker SA31 (manufactured by Yamato Scientific Co., Ltd.). The solution after being shaken was filtered with a filter, and the concentration of the compound in the filtrate was determined by HPLC. The following solutions were used.
JP1 (first solution of Japanese Pharmacopoeia Disintegration Test): 2.0 g of sodium chloride was dissolved in 7.0 mL of hydrochloric acid and water and the amount thereof was set to 1000 mL (pH: approximately 1.2).
JP2 (second solution of Japanese Pharmacopoeia Disintegration Test): 118 mL of 0.2 mol/L sodium hydroxide test solution and water were added to 250 mL of 0.2 mol/L potassium dihydrogen phosphate test solution and the amount thereof was set to 1000 mL (pH: approximately 6.8).
JP2+bile acid (JP2+TC): sodium taurocholic acid was added to the second solution of Japanese Pharmacopoeia Disintegration Test such that the amount thereof became 15 mmol/L.
FaSSIF (simulated intestinal fluid (fasted state)): 3 mmol/L of sodium taurochloric acid, 0.75 mmol/L of lecithin, 3.9 g of potassium dihydrogen phosphate, and 7.7 g of potassium chloride were added to 1 L of water and the pH thereof was adjusted to approximately 6.5 using sodium hydroxide.
FeSSIF (simulated intestinal fluid (fed state)): 15 mmol/L of sodium taurochloric acid, 3.75 mmol/L of lecithin, 8.65 g of acetic acid, and 15.2 g of potassium chloride were added to 1 L of water and the pH thereof was adjusted to approximately 5.0 using sodium hydroxide.
Device: LC1100 (manufactured by Agilent Technologies)
Mobile phase: A: 0.01 mol/L aqueous ammonium acetate solution, B: 0.01 mol/L ammonium acetate methanol solution
Column: Developsil Combi-RP-5.5 μm (2.1 mm×50 mm)
Column temperature: 40° C.
Detection wavelength: 254 nm

[3] = Hygroscopicity test (VTI SGA-100); conditions: 25° C., 5% to 95% relative humidity
Method: Measurement of the hygroscopicity of the crystals of the present invention was performed by using VTI SGA-100 under the conditions of temperature: 25° C., measurement range: 5% to 95% relative humidity, and measurement interval: 5% relative humidity.

[4] = FaSSIF (simulated intestinal fluid, pH 6.5), FaSSIF (fasted state), pH approximately 6.5, room temperature, read-out: Solubility FaSSIF
[5] = FeSSIF (simulated intestinal fluid, pH 5), FeSSIF (fed state), pH approximately 5.0, room temperature, read-out: Solubility FeSSIF
[6] = JP2+TC (JP2 + bile acid), JP2 + 15 mmol/L sodium taurocholic acid, room temperature, read-out: Solubility JP2 + TC
[7] = pH 1.2, JP1, pH approximately 1.2, room temperature, read-out: Solubility JP1
[8] = pH 6.8, JP2, pH approximately 6.8, room temperature, read-out: Solubility JP2

Structure (SMILES)	Physical solid stability, temperature [1]	solubility at 10 minutes [2, 4] [µg/mL]	solubility at 10 minutes [2, 5] [µg/mL]	solubility at 10 minutes [2, 6] [µg/mL]	solubility at 10 minutes [2, 7] [µg/mL]	solubility at 10 minutes [2, 8] [µg/mL]	Hygroscopicity [3]
Br.C[C@@H]1CN(c2ccc(C#N)c(Cl)c2)[C@@H](C)CN1C(=O)Nc1cnc(C2CC2)nc1 [(2R,5S)-4-(3-chloro-4-cyanophenyl)-N-(2-cyclopropylpyrimidin-5-yl)-2,5-dimethylpiperazine-1-carboxamide hydrobromide]	Stable to the temperature	41	94.9	> 80.6	12.3	19.8	0.1% or less
C[C@@H]1CN(c2ccc(C#N)c(Cl)c2)[C@@H](C)CN1C(=O)Nc1cnc(C2CC2)nc1.Cl [(2R,5S)-4-(3-chloro-4-cyanophenyl)-N-(2-cyclopropylpyrimidin-5-yl)-2,5-dimethylpiperazine-1-carboxamide hydrochloride]	Stable to the temperature	39.4	> 100	92.8	9.7	10.1	~1.4%
CS(=O)(=O)O.C[C@@H]1CN(c2ccc(C#N)c(Cl)c2)[C@@H](C)CN1C(=O)Nc1cnc(C2CC2)nc1 [(2R,5S)-4-(3-chloro-4-cyanophenyl)-N-(2-cyclopropylpyrimidin-5-yl)-2,5-dimethylpiperazine-1-carboxamide methanesulfonate]		47.2	> 100	> 100	> 100	20.6	~5%
C[C@@H]1CN(c2ccc(C#N)c(Cl)c2)[C@@H](C)CN1C(=O)Nc1cnc(C2CC2)nc1.O [(2R,5S)-4-(3-chloro-4-cyanophenyl)-N-(2-cyclopropylpyrimidin-5-yl)-2,5-dimethylpiperazine-1-carboxamide monohydrate]	Stable to the temperature	4.4	17.7	8.8	21.8	1.6	0.1% or less
